From the supplement of paper PMC10307832

Experiments:
Experiment in all cases: relative viability (nuclei count vs DMSO), 5 days (fraction); higher = more cells survive
[1] = compound: C1=CC=C2C(=C1)C=CC(=C2SSC3=C(C=CC4=CC=CC=C43)O)O [IPA-3] + CC(C)C[C@H](NC(=O)[C@H](Cc1ccccc1)NC(=O)c1cnccn1)B(O)O [Bortezomib] (partner 0.002 µM)
Method in brief: (§1)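 Lung cancer cell lines were pin-tool dosed in 1536-well plates on the day after seeding, with either a lone drug or a fixed anchor-drug dose plus five library-drug doses (not always all listed) in √10 steps. Nuclei were counted on 4× images after 5 days. Relative viability is the ratio of treated-well to vehicle-well nuclei counts, with each value a median of duplicate plates.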

[2] = compound: C1=CC=C2C(=C1)C=CC(=C2SSC3=C(C=CC4=CC=CC=C43)O)O [IPA-3] + COc1cc2c(Oc3ccc(NC(=O)C4(C(=O)Nc5ccc(F)cc5)CC4)cc3F)ccnc2cc1OCCCN1CCOCC1 [Foretinib] (partner 0.25 µM)
Method in brief: as §1

[3] = compound: Cn1c(Nc2ccc(C(F)(F)F)cc2)nc2cc(Oc3ccnc(-c4ncc(C(F)(F)F)[nH]4)c3)ccc21 [RAF265] + O=C(CCCCCCC(=O)Nc1ccccc1)NO [Vorinostat] (partner 1 µM)
Method in brief: as §1

[4] = compound: Cc1ccc(-n2nc(C(C)(C)C)cc2NC(=O)Nc2ccc(OCCN3CCOCC3)c3ccccc23)cc1 [Doramapimod] + Cc1cc(Nc2cc(N3CCN(C)CC3)nc(Sc3ccc(NC(=O)C4CC4)cc3)n2)n[nH]1 [Tozasertib] (partner 0.1 µM)
Method in brief: as §1

With NCI-H2347 the relative viability ([1]; first compound 0.2 µM) was 0.916, the relative viability ([1]; first compound 0.6325 µM) was 1.01 and the relative viability ([1]; first compound 2 µM) was 1.12. The relative viability ([1]; first compound 6.325 µM) was 0.937, the relative viability ([1]; first compound 20 µM) was 1.3 and the relative viability ([2]; first compound 0.2 µM) was 1.24. The relative viability ([2]; first compound 0.6325 µM) was 0.916, the relative viability ([2]; first compound 2 µM) was 0.908 and the relative viability ([2]; first compound 6.325 µM) was 0.902. The relative viability ([2]; first compound 20 µM) was 0.899, the relative viability ([3]; first compound 0.01 µM) was 0.611 and the relative viability ([3]; first compound 0.03162 µM) was 0.517. The relative viability ([3]; first compound 0.1 µM) was 0.564, the relative viability ([3]; first compound 0.3162 µM) was 0.458 and the relative viability ([3]; first compound 1 µM) was 0.344. It also gave a relative viability ([4]; first compound 0.02 µM) of 0.552, a relative viability ([4]; first compound 0.2 µM) of 0.565 and a relative viability ([4]; first compound 0.6325 µM) of 0.587. The relative viability ([4]; first compound 2 µM) was 0.555.
With NCI-H2405 the relative viability ([1]; first compound 0.2 µM) was 1.02, the relative viability ([1]; first compound 0.6325 µM) was 0.944 and the relative viability ([1]; first compound 2 µM) was 1.02. For the same cell line, the relative viability ([1]; first compound 6.325 µM) was 0.963, the relative viability ([1]; first compound 20 µM) was 1.02 and the relative viability ([2]; first compound 0.2 µM) was 1.12. For the same cell line, the relative viability ([2]; first compound 0.6325 µM) was 1.07, the relative viability ([2]; first compound 2 µM) was 1.07 and the relative viability ([2]; first compound 6.325 µM) was 1.07. The relative viability ([2]; first compound 20 µM) was 1.06, the relative viability ([3]; first compound 0.01 µM) was 1.02 and the relative viability ([3]; first compound 0.03162 µM) was 0.888. The relative viability ([3]; first compound 0.1 µM) was 1.08, the relative viability ([3]; first compound 0.3162 µM) was 0.683 and the relative viability ([3]; first compound 1 µM) was 0.465. For the same cell line, the relative viability ([4]; first compound 0.02 µM) was 0.774, the relative viability ([4]; first compound 0.06325 µM) was 0.703 and the relative viability ([4]; first compound 0.2 µM) was 0.675. It also gave a relative viability ([4]; first compound 0.6325 µM) of 0.869 and a relative viability ([4]; first compound 2 µM) of 0.635.
In the case of NCI-H3122, the relative viability ([1]; first compound 0.2 µM) was 0.994, the relative viability ([1]; first compound 0.6325 µM) was 1.01 and the relative viability ([1]; first compound 2 µM) was 1.03. The relative viability ([1]; first compound 6.325 µM) was 1.13, the relative viability ([1]; first compound 20 µM) was 0.938 and the relative viability ([2]; first compound 0.2 µM) was 1.01. It also gave a relative viability ([2]; first compound 0.6325 µM) of 0.958, a relative viability ([2]; first compound 2 µM) of 0.941 and a relative viability ([2]; first compound 6.325 µM) of 0.955. The relative viability ([2]; first compound 20 µM) was 1.06, the relative viability ([3]; first compound 0.01 µM) was 1.02 and the relative viability ([3]; first compound 0.03162 µM) was 1.01. It also gave a relative viability ([3]; first compound 0.1 µM) of 0.93, a relative viability ([3]; first compound 0.3162 µM) of 0.965 and a relative viability ([3]; first compound 1 µM) of 0.631. The relative viability ([4]; first compound 0.02 µM) was 0.439, the relative viability ([4]; first compound 0.06325 µM) was 0.408 and the relative viability ([4]; first compound 0.2 µM) was 0.448. It also gave a relative viability ([4]; first compound 0.6325 µM) of 0.431 and a relative viability ([4]; first compound 2 µM) of 0.365.
PC-3 [JPC-3] gave a relative viability ([1]; first compound 0.2 µM) of 0.92, a relative viability ([1]; first compound 0.6325 µM) of 0.885 and a relative viability ([1]; first compound 2 µM) of 0.786. It also gave a relative viability ([1]; first compound 6.325 µM) of 0.824, a relative viability ([1]; first compound 20 µM) of 0.873 and a relative viability ([2]; first compound 0.2 µM) of 1.06. For the same cell line, the relative viability ([2]; first compound 0.6325 µM) was 0.975, the relative viability ([2]; first compound 2 µM) was 1.04 and the relative viability ([2]; first compound 6.325 µM) was 0.965. It also gave a relative viability ([2]; first compound 20 µM) of 1, a relative viability ([3]; first compound 0.01 µM) of 0.942 and a relative viability ([3]; first compound 0.03162 µM) of 0.78. It also gave a relative viability ([3]; first compound 0.1 µM) of 1.08, a relative viability ([3]; first compound 0.3162 µM) of 0.455 and a relative viability ([3]; first compound 1 µM) of 0.487. The relative viability ([4]; first compound 0.02 µM) was 0.914, the relative viability ([4]; first compound 0.06325 µM) was 0.961 and the relative viability ([4]; first compound 0.2 µM) was 0.938. The relative viability ([4]; first compound 0.6325 µM) was 1.03 and the relative viability ([4]; first compound 2 µM) was 0.92.
Cell Line PC-14 has a relative viability ([1]; first compound 0.2 µM) of 1.09, a relative viability ([1]; first compound 0.6325 µM) of 0.79 and a relative viability ([1]; first compound 2 µM) of 0.914. For the same cell line, the relative viability ([1]; first compound 6.325 µM) was 0.805, the relative viability ([1]; first compound 20 µM) was 1.04 and the relative viability ([2]; first compound 0.2 µM) was 1.07. The relative viability ([2]; first compound 0.6325 µM) was 0.938, the relative viability ([2]; first compound 2 µM) was 0.941 and the relative viability ([2]; first compound 6.325 µM) was 0.874. It also gave a relative viability ([2]; first compound 20 µM) of 1.07, a relative viability ([3]; first compound 0.01 µM) of 0.743 and a relative viability ([3]; first compound 0.03162 µM) of 0.642. For the same cell line, the relative viability ([3]; first compound 0.1 µM) was 0.632, the relative viability ([3]; first compound 1 µM) was 0.619 and the relative viability ([4]; first compound 0.02 µM) was 0.582. The relative viability ([4]; first compound 0.06325 µM) was 0.602, the relative viability ([4]; first compound 0.2 µM) was 0.588 and the relative viability ([4]; first compound 0.6325 µM) was 0.647. For the same cell line, the relative viability ([4]; first compound 2 µM) was 0.525.
For RERF-LC-KJ, the relative viability ([1]; first compound 0.2 µM) was 1.33, the relative viability ([1]; first compound 0.6325 µM) was 1.36 and the relative viability ([1]; first compound 2 µM) was 1.12. The relative viability ([1]; first compound 6.325 µM) was 1.25, the relative viability ([1]; first compound 20 µM) was 1.18 and the relative viability ([2]; first compound 0.2 µM) was 1.02. It also gave a relative viability ([2]; first compound 0.6325 µM) of 0.913, a relative viability ([2]; first compound 2 µM) of 0.868 and a relative viability ([2]; first compound 6.325 µM) of 0.847. The relative viability ([2]; first compound 20 µM) was 1.04, the relative viability ([3]; first compound 0.01 µM) was 0.704 and the relative viability ([3]; first compound 0.03162 µM) was 0.647. The relative viability ([3]; first compound 0.1 µM) was 0.772, the relative viability ([3]; first compound 0.3162 µM) was 0.649 and the relative viability ([3]; first compound 1 µM) was 0.582. For the same cell line, the relative viability ([4]; first compound 0.02 µM) was 0.506, the relative viability ([4]; first compound 0.06325 µM) was 0.535 and the relative viability ([4]; first compound 0.2 µM) was 0.609. The relative viability ([4]; first compound 0.6325 µM) was 0.516 and the relative viability ([4]; first compound 2 µM) was 0.498.
SK-LU-1 showed a relative viability ([1]; first compound 0.2 µM) of 1.14, a relative viability ([1]; first compound 0.6325 µM) of 1.21 and a relative viability ([1]; first compound 2 µM) of 1.09. For the same cell line, the relative viability ([1]; first compound 6.325 µM) was 1.19, the relative viability ([1]; first compound 20 µM) was 1.62 and the relative viability ([2]; first compound 0.2 µM) was 1.01. For the same cell line, the relative viability ([2]; first compound 0.6325 µM) was 0.78, the relative viability ([2]; first compound 2 µM) was 0.908 and the relative viability ([2]; first compound 6.325 µM) was 0.828. It also gave a relative viability ([2]; first compound 20 µM) of 0.911, a relative viability ([3]; first compound 0.01 µM) of 0.715 and a relative viability ([3]; first compound 0.03162 µM) of 0.449. It also gave a relative viability ([3]; first compound 0.1 µM) of 0.443, a relative viability ([3]; first compound 0.3162 µM) of 0.36 and a relative viability ([3]; first compound 1 µM) of 0.262. It also gave a relative viability ([4]; first compound 0.02 µM) of 0.348, a relative viability ([4]; first compound 0.06325 µM) of 0.41 and a relative viability ([4]; first compound 0.2 µM) of 0.314. It also gave a relative viability ([4]; first compound 0.6325 µM) of 0.347 and a relative viability ([4]; first compound 2 µM) of 0.277.
SW 1573 was tested, and the relative viability ([1]; first compound 0.2 µM) was 1.18, the relative viability ([1]; first compound 0.6325 µM) was 1.04 and the relative viability ([1]; first compound 2 µM) was 1.36. It also gave a relative viability ([1]; first compound 6.325 µM) of 1.13, a relative viability ([1]; first compound 20 µM) of 1.25 and a relative viability ([2]; first compound 0.2 µM) of 1.06. For the same cell line, the relative viability ([2]; first compound 0.6325 µM) was 0.83, the relative viability ([2]; first compound 2 µM) was 0.806 and the relative viability ([2]; first compound 6.325 µM) was 0.808. It also gave a relative viability ([2]; first compound 20 µM) of 0.893, a relative viability ([3]; first compound 0.01 µM) of 1 and a relative viability ([3]; first compound 0.03162 µM) of 0.763. For the same cell line, the relative viability ([3]; first compound 0.1 µM) was 0.834, the relative viability ([3]; first compound 0.3162 µM) was 0.792 and the relative viability ([3]; first compound 1 µM) was 0.582. The relative viability ([4]; first compound 0.02 µM) was 0.267, the relative viability ([4]; first compound 0.06325 µM) was 0.208 and the relative viability ([4]; first compound 0.2 µM) was 0.198. It also gave a relative viability ([4]; first compound 0.6325 µM) of 0.22 and a relative viability ([4]; first compound 2 µM) of 0.157.
